Our source for the IC50 values is BindingDB's records for doi:10.1021/jm00129a004 (Bristol Myers Squibb, 1989).

The target of this assay is HMG-CoA reductase (Rattus norvegicus). Briefly: In vitro inhibition of rat liver microsomal HMG-CoA reductase activity. In general terms: Microsomes from liver hold many membrane-bound enzymes, among them those of drug oxidation.

The structures appear in SMILES notation.

In general, IC50 refers to the concentration needed to halve the response being measured. Read a low IC50 as greater potency in that assay. Consider `Cn1nnnc1C(/C=C/[C@H]1C[C@H](O)CC(=O)O1)=C(c1ccc(F)cc1)c1ccc(F)cc1`, for which the half-maximal inhibitory concentration (IC50) stood at 19 nM. As for `Cn1nnnc1C(/C=C/[C@@H]1C[C@@H](O)CC(=O)O1)=C(c1ccc(F)cc1)c1ccc(F)cc1` [6-[4,4-Bis-(4-fluoro-phenyl)-3-(1-methyl-1H-tetrazol-5-yl)-buta-1,3-dienyl]-4-hydroxy-tetrahydro-pyran-2-one (BMY 22089)], the figure is 43 nM.
